Values of other authors in patent publication US20030082168A1, “Compositions and methods for facilitating weight loss” (priority 2001, published 2003).
Like-named read-outs stand apart in the source and are kept apart here.

Columns and labels:
[1] = for Weight of control group above CLA group: after 6 weeks
[2] = 2% CLA in diet; P=0.01
[3] = tested on: intercapsular brown adipose tissue (IBAT); settings: caffeine alone

Row | Compound | Weight of control group above CLA group ([1]; high-fat diet, P<0.0001) | Energy intake, growth rate, adipose depot weight and carcass lipid ([1]; independent of diet composition) | Weight of control group above CLA group ([1]; low-fat diet, P<0.005) | Metabolic rate ([1]; mouse, in vivo) | Nighttime respiratory quotient ([1]; mouse, in vivo) | Subcutaneous fat, change vs sunflower oil [2] | IBAT oxygen uptake [3]
1 | Conjugated linoleic acid [CLA] | 5.7 g | significantly reduced | 3.2 g | significantly increased | decreased | −6.8% | –
2 | Cn1c(=O)c2c(ncn2C)n(C)c1=O [Caffeine] | – | – | – | – | – | – | does not increase
